“Also recorded” adds a separate entry of the source.
Experiments:
[1] = In vitro percutaneous absorption (skin permeation) of saturated solutions, modified Franz cell; assay type: in vitro ADME, human; settings: dissolved in IPM/Pharmasolve 80:20 (v/v), compared with control solution
Experimental: For all experiments (one run with 9 cells) skin from one patient was used. The skin was excised full skin from surgery of the thigh, cleaned from adhering fat tissue, stored at −18° C. prior to use but not for longer than 6 months.
In vitro skin permeation investigation was performed as described in this Example.
The flux was calculated for every formulation by means of linear regression (performance with Excel software; regression coefficient to be >0.98) from the mean cumulative permeated amounts in μg/cm^2 during steady state against the time in hours. For test solution #1 the linear regression was calculated from 12-48 hours (not until 72 hours, because after 48 hours the permeation was decreasing). […] The lag-time (which was the time when steady state of permeation was starting after application) was taken from the intersection of the regression line with the time axis.
The transdermal delivery rate was assumed to be the same in vivo as it is in vitro (this must, of course, be proven by further kinetic studies). The patch size was set to 20 cm^2, which is middle sized (small patches are 5 cm^2; big patches are 60 cm^2) and the delivery rate was calculated daily (1 day=24 hours).
(flux rate steady state [μg/cm^2/h]×20 [cm^2]×24[h])/1000=delivery rate [mg/20 cm^2/24 h].

[2] = tested on: pig vesicourethral junction sphincter muscle; assay: Functional assay: dose response on isolated pig vesicourethral junction sphincter muscle strips; assay type: cell-based
Source text: Samples of female white landrace pig bladder and urethra were obtained from freshly slaughtered pigs at the local abattoir. The pigs were killed by exsanguination after initial stunning by electric shock. The anus, rectum, bladder and urethra were then excised en bloc during evisceration and immediately transferred into pre oxygenated Krebs' solution (1 mmol/l: NaCl 120, KCl 5.9 NaHCO3 15.4, CaCl2 2.5, MgCl2 1.2, glucose 11.5) and transported to the laboratory, where they were stored in the refrigerator (at 4° C.) until ready to be processed.
The location of the vesicourethral junction sphincter was then identified. The bladders were inflated via a transurethral catheter with 200 ml. fluid. The fluid was then gently squeeze towards the outlet, until a sharp narrowing of the bladder base becomes apparent (Dass, 1997; Dass et al., 2001). Tissue sections from this region were then denuded of urothelium, and dissected transversely into a number of muscle strips.
Muscle strips measuring about 5-6 mm by 2-3 mm with an average weight of 7 mg were dissected, fine (5/0) silk threads were tied at each end of the strips and each strip mounted vertically in a 0.2 ml capacity, perspex organ bath between two recessed platinum electrodes through which electrical field stimulation (EFS) could be delivered. Strips were constantly superfused with Krebs' solution (37° C.) at a rate of 1.5 ml 1 min. The Krebs' solutions were gassed with 97% oxygen 3% carbon dioxide. Drugs were delivered by substituting drug containing solutions of the desired concentration for Krebs' solutions.
The apparatus comprised of six organ baths in parallel allowing the study of six strips simultaneously as described by Brading and Sibley (1983). Each channel was calibrated with a 1 g weight attached to the transducer before each experiment, and tissues were tensioned to 1 g after mounting. Isomeric tension generated by the strips was measured using isomeric force displacement transducers, Pioden Dynamometer UFI transducers (Pioden Controls Ltd, Canterbury, Kent) or AD Instruments MLT050/D force transducers, amplified (Harvard Transducer/Amplifier, Harvard Apparatus Ltd, Edenbridge, Kent) and analyzed using MacLab Data Acquisition system (AD Instruments, Sydney, Australia) or AD Instruments OCTAL Bridge Amplifier connected to Power Lab/8SP (AD Instruments, Sydney, Australia) and Chart v3.6 software (Macintosh) or Chart v5 (PC).
Dose response curves for the various compounds were constructed by testing one drug on a pair of strip in each experiment. The preparations were subjected to a sequence of successive 10 s […] applications of increasing doses of drugs with intervening washout periods.
1R,2S-methoxamine hydrochloride, the compound of formula (Ia) and the compound of formula (III) were made available by Norgine International Research, Middlesex.
Responses were reported as either grams of tension or % maximum force and given as mean values ±SEM. EC50 values were used as a measure of potency. The EC50 values were measured from the graph of dose response curve using the kaleidograph graphical software applications. Results were assessed using statistical analysis software, StatView 5.0 (SAS Institute Inc.) using ANOVA followed by Fisher's test. Significant difference between data was assumed with p<0.05.

In the case of `COc1ccc(OC)c([C@@H](O)[C@H](C)NC(=O)CC[C@H](N)C(=O)O)c1` [compound of formula (Ia), (S)-2-Amino-4-[(1S,2R)-2-(2,5-dimethoxyphenyl)-2-hydroxy-1-methyl-ethylcarbamoyl]butyric acid], the “enhancement factor for percutaneous absorption” value [1] is reported as 13.84, the EC50 ([2]; Sus scrofa, contraction, from dose response curve, read-out: relative potencies (EC50)) is reported as 4.64 mM and the “contractile response of muscle strip (representative traces)” value ([2]; compound alone, FIG. 1) is reported as “no significant contraction; also recorded: little or no activity”. The “response over the dose range tested” value ([2]; dose range 10^−6M-10^−2M) was “failed to evoke any appreciable response”.

From patent US20080090916A1, “Compounds for Treating Urinary Incontinence” (priority 2005, published 2008)
